Results: US6630496B1, “Inhibitors of phospholipase enzymes” (Genetics Institute LLC, priority 1996, dated 2003)

Tests used:
cPLA2 [1] = target: T1, cPLA2 (Homo sapiens, UniProt P47712); assay: Coumarine assay (7-hydroxycoumarinyl 6-heptenoate hydrolysis); format: biochemical; settings: 60 μM 7-hydroxycoumarinyl 6-heptenoate; read-out: IC50 (μM) Coumarine
T1 sequence (P47712 1-749): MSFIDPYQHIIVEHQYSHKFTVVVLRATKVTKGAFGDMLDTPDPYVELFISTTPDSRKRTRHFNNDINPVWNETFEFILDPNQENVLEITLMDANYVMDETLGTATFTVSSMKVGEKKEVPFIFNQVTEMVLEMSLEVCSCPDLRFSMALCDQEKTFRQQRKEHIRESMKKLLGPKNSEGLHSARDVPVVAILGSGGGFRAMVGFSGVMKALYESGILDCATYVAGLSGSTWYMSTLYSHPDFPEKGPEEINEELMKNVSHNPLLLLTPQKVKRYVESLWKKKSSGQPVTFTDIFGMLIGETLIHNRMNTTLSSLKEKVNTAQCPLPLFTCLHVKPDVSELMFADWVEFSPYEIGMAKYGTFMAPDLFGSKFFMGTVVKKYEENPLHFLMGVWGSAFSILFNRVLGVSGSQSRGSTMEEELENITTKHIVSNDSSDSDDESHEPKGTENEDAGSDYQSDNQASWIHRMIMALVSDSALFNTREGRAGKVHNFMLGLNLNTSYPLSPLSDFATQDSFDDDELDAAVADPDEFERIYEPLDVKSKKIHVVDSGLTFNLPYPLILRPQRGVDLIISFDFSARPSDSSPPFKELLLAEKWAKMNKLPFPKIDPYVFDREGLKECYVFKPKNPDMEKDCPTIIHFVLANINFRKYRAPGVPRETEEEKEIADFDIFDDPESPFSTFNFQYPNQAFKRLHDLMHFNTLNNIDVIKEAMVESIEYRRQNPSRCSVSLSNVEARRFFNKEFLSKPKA
Protocol: 7-hydroxycoumarinyl 6-heptenoate was used as a monomeric substrate for cPLA2 as reported previously (Huang, Z. et al., 1994, Analytical Biochemistry 222, 110-115). Inhibitors were mixed with 200 μL assay buffer (80 mM Hepes, pH 7.5, 1 mM EDTA) containing 60 μM 7-hydroxycoumarinyl 6-heptenoate. The reaction was initiated by adding 4 μg cPLA2 in 50 μL assay buffer. Hydrolysis of the 7-hydroxycoumarinyl 6-heptenoate ester was monitored in a fluorometer by exciting at 360 nm and monitoring emission at 460 nm. Enzyme activity is proportional to the increasein emission at 460 nm per minute. In the presence of a cPLA2 inhibitor, the rate of increase is less.

cPLA2 [2] = target: T1, cPLA2; assay: Soluble substrate assay (LysoPC); format: biochemical; settings: NA = inhibitory activity not detected; read-out: IC50 (μM) Lyso PC
Protocol: (b) Soluble Substrate Assay (LysoPC)
The lipid was resuspended by vortexing 80 mM Hepes pH 7.5, 1 mM EDTA (1.2×final concentration). A typical assay consisted of lipid suspension (85 μl) to which was added consecutively the inhibitor (5 μl in DMSO) and cPLA2, 200 ng in 80 mM Hepes pH 7.5, 2 mM DTT and […]. This assay was conducted by either the manual assay or automated assay protocol described below.

[3] = test system: carrageenan-induced footpad edema; assay: Rat carrageenan-induced footpad edema test; format: in vivo; settings: iv, 1 mg/ml, 5 ml/kg, male Sprague Dawley rats, footpad volume 3 hours after carrageenan, read-out: % inhibition of rat carrageenan-induced footpad edema
Protocol: Compounds of the present invention were also tested for in vivo activity in a rat paw edema test according to the procedure described in Example 89.
Rat Carrageenan-Induced Footpad Edema Test
Each compound was suspended in 0.3 ml absolute ethanol, 0.1 ml Tween-80 and 2.0 ml Dulbecco's PBS (without calcium or magnesium). To this mixture, 0.1 ml 1N NaOH was added. After solution was complete, additional amounts of PBS were added to adjust the concentration to 1 mg/ml. All comounds remained in solution. Compounds were administered i.v. in a volumne of 5 ml/kg to male Sprague Dawley rats at the same time that edema was induced by injection of 0.05 ml of 1% Type IV carrageenan into the hind footpad. Footpad volume was measured before dosing with compound and 3 hours after dosing with carageenan.

IC50 (cPLA2 [1]) [µM]	IC50 (cPLA2 [2]) [µM]	Compound	inhibition in vivo at 1000 µg/mL, 5 mg/kg [3] [%]
> 50	4.4	O=C(CSCC1Cc2cc(OCc3ccc4ccccc4n3)ccc2N1C(=O)COc1cc(C(F)(F)F)cc(C(F)(F)F)c1)Nc1cc(C(F)(F)F)cc(C(F)(F)F)c1 (stereo not drawn) [Example 50]	11.7
10	0.22	CCC(C)(C)c1ccc(OCC(=O)N2c3ccc(OCc4ccccc4)cc3CC2CSc2ccccc2C(=O)O)c(C(C)(C)CC)c1 (stereo not drawn) [Example 67, 2-(2-(-5-Benzyloxy-1-(2,4-bis(1,1-dimethy)propyl)phenoxyacetyl)indolinyl)methylthiobenzoic Acid]	17.5
19	0.84	CCC(C)(C)c1ccc(OCC(=O)N2c3ccc(OCc4ccccc4)cc3CC2CSCC(=O)N(C)c2cc(C(=O)O)ccc2OC)c(C(C)(C)CC)c1 (stereo not drawn) [Example 70, 3-N-Methyl-(2-(-5-benzyloxy-1-(2,4-bis(1,1-dimethy)propyl)phenoxyacetyl)indolinyl)methylthioacetamido-4-methoxybenzoic Acid]	21.7
